{"source": "a melting point compilation (Tetko et al.; mined from patent text by program, amines drawn as free bases though some values may be those of a salt)"}
{"units": {"melting point": "°C"}}
{"smiles": "CN1Cc2c(C#CC3(O)CCC3)ncn2-c2ccc(F)cc2C1=O", "melting point": "177 to 179"}
{"smiles": "CC(C)(C)OC(=O)NCCCCC(=O)N[C@@H](CC(=O)OCc1ccccc1)C(=O)N[C@@H](Cc1ccccc1)C(=O)OCc1ccccc1", "melting point": 120}
{"smiles": "CC(C)(C)c1cc(CNn2ccnc2)cc(C(C)(C)C)c1O", "melting point": "171 to 174"}
{"smiles": "O=C(c1ccc(-c2ccc(C(CC3CCOCC3)c3ccc(S(=O)(=O)C4CC4)cc3)[nH]2)nc1)N1CCOCC1", "note": "(stereo not drawn)", "melting point": "114 to 116"}
{"smiles": "CC1=C(C)CC(C(=O)O)OC1", "note": "(stereo not drawn)", "melting point": "82 to 84"}
{"smiles": "CCOP(=O)(CCCOc1ccc2c(c1)c(CC(N)=O)c(C)n2Cc1ccccc1)OCC", "melting point": "106 to 111"}
{"smiles": "O=C(C1CCN(S(=O)(=O)c2ccc3cc(Br)ccc3c2)CC1)N1CCN(c2ccncc2)CC1", "melting point": "229 to 230"}
{"smiles": "CCOC(=O)c1c(OC)c([N+](=O)[O-])cn1C", "melting point": "145 to 147"}
{"smiles": "Cc1cc(C(=O)Nc2ccc(C(N)=O)cc2)on1", "melting point": "> 300"}
{"smiles": "COc1ccc(OC)c2c(=O)cc(C(=O)O)sc12", "melting point": "210 to 212"}
{"smiles": "C#CCN(Cc1cc2c(=O)n(C)c(CO)nc2cc1Cl)c1ccc(C(=O)OC(C)(C)C)cc1", "melting point": "109 to 111"}
{"smiles": "CCOC(=O)C(=O)c1cc(OC)c(OCOC)c2c(Cc3ccccc3)cccc12", "melting point": "70 to 72"}
{"smiles": "COc1ccc(C(CCCCC(=O)NO)C2=C(C)C(=O)c3ccccc3C2=O)cc1", "note": "(stereo not drawn)", "melting point": "129 to 130"}
{"smiles": "COC(=O)c1ccccc1S(=O)(=O)NC(=O)Nc1nc(OC)cc(OC(F)(F)F)n1", "melting point": "141 to 143"}
{"smiles": "Cc1cc2c(-c3ccccc3)c(CC(=O)O)n(C)c(=O)c2cc1C", "melting point": "217 to 220"}
{"smiles": "CN(C)C(=O)c1nc(-c2ccncc2)nc2c1c1ccc(Cl)cc1n2C", "melting point": "268 to 269"}
{"smiles": "CC(=O)N(C)c1c(N(C)C)cc(CC(C#N)=CNc2ccccc2)cc1N(C)C", "melting point": "190 to 200"}
{"smiles": "O=C(Nc1ccc(-c2nc3ccccc3s2)cc1)c1ccccc1", "melting point": "227 to 228"}
{"smiles": "CC(C)(CO)C(=O)C(Oc1ccc(Cl)cc1)n1cncn1", "note": "(stereo not drawn)", "melting point": "110 to 111"}
{"smiles": "CCOC(=O)CN1CCN(CCNc2ncc3ncnc(Nc4ccc(F)c(Cl)c4)c3n2)CC1", "melting point": "128 to 129"}
{"smiles": "CC(C)N(CCc1c[nH]c2cc(Cl)ccc12)Cc1cccc(OCC(F)(F)C(F)(F)F)c1", "melting point": "77 to 80.2"}
{"smiles": "CC(C)(C)C(=O)OCOc1ccc(C=O)cc1OC(=O)C(C)(C)C", "melting point": "58 to 60"}
{"smiles": "CC(C)(C)OC(=O)NC1CCN(C(=O)[C@@]23C[C@@H](c4ccccc42)c2ccc(Cl)cc23)CC1", "melting point": "154 to 156"}
{"smiles": "O=C(C=Cc1cccs1)C=Cc1cccs1", "melting point": "115 to 117"}
{"smiles": "COC(=O)CCC(NC(=O)Nc1cccc(C)c1)C(=O)O", "note": "(racemic)", "melting point": 127}
{"smiles": "CCOC(=O)c1cc2c(F)cc(F)cc2[nH]1", "melting point": "153 to 154"}
{"smiles": "COC(=O)NCCOc1cc(Oc2ccc(C(F)(F)F)cc2Cl)ccc1[N+](=O)[O-]", "melting point": "91 to 92"}
{"smiles": "CC(C)(c1ccc(OP(=O)(c2ccccc2)c2ccccc2)cc1)c1ccc(OP(=O)(c2ccccc2)c2ccccc2)cc1", "melting point": "71 to 72"}
{"smiles": "CC1(C)CCC(C)(C)c2cc(Sc3ccc(C(=O)O)cc3)ccc21", "melting point": "187 to 188"}
{"smiles": "COC(=O)Nc1cccc(C)c1CNc1cccn2c(CO)c(C)nc12", "melting point": "170 to 172"}
{"smiles": "CCc1nc2c(Cl)nc(C)cc2n1-c1ccc(CCNC(=O)NS(=O)(=O)c2ccc(C)cc2)cc1", "melting point": 163}
{"smiles": "O=[N+]([O-])c1ccc(N2CCN(CC(O)(Cn3cncn3)c3ccc(Cl)cc3Cl)CC2)cc1", "note": "(stereo not drawn)", "melting point": 168}
{"smiles": "CCOC(=O)C1=C(C)NC(c2cscn2)=NC1c1cccc(OC)c1", "note": "(stereo not drawn)", "melting point": "140 to 142"}
{"smiles": "Cc1cn(C)cc1-c1cc2nccnc2[nH]1", "melting point": 210}
{"smiles": "CC1=C(C(=O)OCCN2CCCCC2)C(c2ccccc2C(F)(F)F)c2c(ccnc2OC(C)C)N1", "note": "(stereo not drawn)", "melting point": "118 to 120"}
{"smiles": "COc1ccc(-c2c(C=O)cc(OC)c(OC)c2OC)c(C=O)c1OS(C)(=O)=O", "melting point": "130 to 131"}
{"smiles": "Cc1c(NC(=O)c2ccc(OCc3ccccc3F)cc2)ccc2cc(CN3CCCC3)cnc12", "melting point": "104 to 105"}
{"smiles": "O=C1N(Cc2cccnc2)c2ccccc2C12COc1ccc3nonc3c12", "note": "(stereo not drawn)", "melting point": "230 to 232"}
{"smiles": "COC(=O)c1ccc(CN2CCN(C(=O)c3cc(C(F)(F)F)cc(C(F)(F)F)c3)[C@H](Cc3c[nH]c4ccccc34)C2)cc1", "melting point": "75 to 78"}
{"smiles": "CCOC(=O)CCCCC=Cc1cccc(Oc2cccc(C=O)c2)c1", "melting point": "142 to 145"}
{"smiles": "O=[N+]([O-])c1cnc2ccc(Br)cn12", "melting point": "160 to 161"}
{"smiles": "Cc1cccc(C(=O)O)c1OCc1ccc(C(F)(F)F)cc1", "melting point": "104 to 106"}
{"smiles": "Cc1c(-c2ccccc2)c(N2CC[C@H](N(C)C)C2)c2oc(N3CC(CC(=O)O)C3)nc2c1C#N", "melting point": "125 to 128"}
{"smiles": "Oc1ccc2c(c1)OCC(N1CCC(O)(c3ccc(F)cc3)CC1)C2O", "note": "(stereo not drawn)", "melting point": "159 to 160"}
{"smiles": "CCOC(=O)C(CCCCNC(=O)OC(C)(C)C)NC(=O)C=CC(=O)c1ccccc1", "note": "(stereo not drawn)", "melting point": "91 to 94"}
{"smiles": "CN(C)CCn1c2c(c3ccccc31)CCSCCC2", "melting point": "62 to 64"}
{"smiles": "CN(C)c1nc2cc(NC(=O)c3c(C(=O)N4CC(F)C4)cnn3C)ccn2n1", "melting point": "243 to 244"}
{"smiles": "COc1ccc(SC2(CCCC#Cc3ccc(Cl)cc3)SC(=O)NC2=O)cc1", "note": "(stereo not drawn)", "melting point": "106 to 109"}
{"smiles": "COc1cc(-c2cc(C(F)(F)F)nn2-c2ccc(S(C)(=O)=O)c(F)c2)ccc1-c1cscn1", "melting point": "155 to 157"}
{"smiles": "O=[N+]([O-])c1ccc2c(c1)CCN(Cc1ncn[nH]1)C2", "melting point": "163 to 166"}
{"smiles": "CCOC(=O)c1nn(-c2ccc(C)cc2)cc1-c1ccccc1", "melting point": "115 to 117"}
{"smiles": "Nc1cn(C2CCN(c3c(F)cc4c(=O)c(C(=O)O)cn(C5CC5)c4c3F)C2)nn1", "note": "(stereo not drawn)", "melting point": 221}
{"smiles": "CC(C)c1nc(C2CCCCC2)cc(-c2ccc(F)cc2)c1CO", "melting point": "101 to 104"}
{"smiles": "O=C1c2ccccc2C(=O)N1c1ncc(C(Cl)Cl)nc1CO", "melting point": "188 to 189"}
{"smiles": "CCCN(C)c1ccc(-c2c(Cl)c(=O)c2=O)cc1", "melting point": 162}
{"smiles": "CCOC(=O)c1ncc2[nH]c3ccc(C4CC=CCC4)cc3c2c1C", "note": "(stereo not drawn)", "melting point": "200 to 201"}
{"smiles": "CCOc1cccc(-c2ccc3c(c2)C=C(C(=O)Nc2ccc(CN(C)C4CCOCC4)cc2)CCS3(=O)=O)c1", "melting point": "192 to 195"}
{"smiles": "CC(C)(C)OC(=O)NCC(O)c1ccsc1", "note": "(stereo not drawn)", "melting point": "103 to 105"}
{"smiles": "Cc1cccc2c(Nc3cc(CO)cc(NC(=O)Oc4ccc(N(CCCl)CCCl)cc4)c3)c3ccccc3nc12", "melting point": "229 to 231"}
{"smiles": "N#CN=CNc1nc(OCc2ccc(F)cc2)ncc1F", "melting point": "148 to 149"}
{"smiles": "Cn1nnnc1SCC(CS(=O)(=O)c1ccc(-c2ccc(Cl)cc2)cc1)C(=O)O", "note": "(stereo not drawn)", "melting point": "98 to 100"}
{"smiles": "CCN(C(=O)C1CC1)c1cccc(-c2ccc3nnc(C)n3n2)c1", "melting point": "149 to 151"}
{"smiles": "Cn1ncc(C(=O)N2CCOCC2)c1C(=O)Nc1ccn2nc(-c3ccccc3)nc2c1", "melting point": "203 to 207"}
{"smiles": "CC(C)CCC1(c2ccccc2)CC=CC(=O)O1", "note": "(stereo not drawn)", "melting point": "134 to 136"}
{"smiles": "CNS(=O)(=O)N(C)C(=O)CCCl", "melting point": 96}
{"smiles": "COCc1ccc2nc(SCCN3CCN(CC(=O)Nc4c(C(C)C)cccc4C(C)C)CC3)oc2c1COC", "melting point": "96 to 97"}
{"smiles": "COC(=O)C1(C)CCc2cc(C(=O)c3ccccc3)c(OC)cc21", "note": "(stereo not drawn)", "melting point": "135 to 137"}
{"smiles": "CCC1(CC)NC(C)(C)CN(c2ccccc2)C1=O", "melting point": "54 to 56"}
